Among the test systems are OVCAR-8 ovarian; HCT-116 colon; U251 CNS; NCI-H460 lung; CCRF-CEM leukemia; SK-MEL-28 melanoma; UACC-62 melanoma; LOX IMVI melanoma.
Holding throughout (experiment): growth of human tumour cells (NCI), 48 h

The values below come from PubChem BioAssay (NCI).

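Briefly, cells in 96-well plates were exposed to five compound concentrations for 48 h, and endpoints were estimated by linear interpolation. The concentration for 50% growth inhibition is given as GI50. At the TGI there is no net growth.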

In the case of `CCOC(=O)c1c(Cl)c2c(n1Cc1cccc(OC)c1)-c1oncc1CC2`, the GI50 was 7.27 µM with OVCAR-8 ovarian; 0.904 µM with HCT-116 colon; 4.75 µM in the assay with U251 CNS; 0.659 µM with NCI-H460 lung; 2.07 µM in the assay on CCRF-CEM leukemia; 4.89 µM in the assay on SK-MEL-28 melanoma. Further, the GI50 with UACC-62 melanoma was 0.608 µM; with LOX IMVI melanoma, 2.51 µM. Also, the TGI with OVCAR-8 ovarian was over 100 µM; in the assay on HCT-116 colon, 24.2 µM; in the assay with U251 CNS it was over 100 µM; with NCI-H460 lung it was 13.7 µM; with CCRF-CEM leukemia, 84 µM; in the assay with SK-MEL-28 melanoma, over 100 µM. In addition, the TGI with UACC-62 melanoma is 29.3 µM; with LOX IMVI melanoma it was over 100 µM.

As for `CCN(CC)CCCCNc1ncc2cc(-c3cc(OC)cc(OC)c3)c(NC(=O)NC(C)(C)C)nc2n1`, the GI50 was 5.53 µM in the assay with OVCAR-8 ovarian; 4.13 µM in the assay with HCT-116 colon; 2.77 µM in the assay with U251 CNS; 6.85 µM in the assay on NCI-H460 lung; 3.96 µM with CCRF-CEM leukemia; 4.67 µM in the assay on SK-MEL-28 melanoma. Further, the GI50 was 4.2 µM in the assay with UACC-62 melanoma and 5.34 µM in the assay on LOX IMVI melanoma. Moreover, the TGI in the assay with OVCAR-8 ovarian came out at 26.6 µM; with HCT-116 colon, 16.3 µM; in the assay with U251 CNS, 17.5 µM; with NCI-H460 lung, 20.8 µM; in the assay with CCRF-CEM leukemia, 66.1 µM; with SK-MEL-28 melanoma, 12.4 µM. Besides, the TGI with UACC-62 melanoma stood at 15.1 µM; in the assay with LOX IMVI melanoma, 18.8 µM.

Regarding `Cc1[nH]nc2ccc3nc(-c4ccc5[nH]ncc5c4)c4c(c3c12)CCCC4`, the GI50 in the assay on OVCAR-8 ovarian was 1.15 µM; in the assay with HCT-116 colon it was 0.473 µM; in the assay on U251 CNS, 0.92 µM; in the assay on NCI-H460 lung, 0.832 µM; in the assay with CCRF-CEM leukemia it was 2.13 µM; in the assay on SK-MEL-28 melanoma, 2.09 µM. Moreover, the GI50 is 0.717 µM in the assay on UACC-62 melanoma and 1.22 µM with LOX IMVI melanoma. Further, the TGI with OVCAR-8 ovarian was 13.2 µM; in the assay on HCT-116 colon, 11.3 µM; with U251 CNS, 13.9 µM; with NCI-H460 lung, 11.2 µM; in the assay with CCRF-CEM leukemia, over 100 µM; in the assay with SK-MEL-28 melanoma it was 9.54 µM. The TGI with UACC-62 melanoma came out at 6.13 µM; with LOX IMVI melanoma it was 11 µM.

On to `Cc1cc(=O)oc2c(OS(C)(=O)=O)c(OS(C)(=O)=O)ccc12`, for which the TGI with OVCAR-8 ovarian, in the assay with HCT-116 colon, in the assay with U251 CNS, in the assay with NCI-H460 lung, in the assay on CCRF-CEM leukemia and in the assay with SK-MEL-28 melanoma was over 100 µM in each case. The TGI with UACC-62 melanoma and in the assay on LOX IMVI melanoma was over 100 µM in each case.

With `C=C(C)[C@@H]1CC[C@]2(C(=O)O)CC[C@]3(C)[C@H](CC[C@@H]4[C@@]5(C)C/C(=C/c6ccc(OC)cc6)C(=O)C(C)(C)[C@@H]5CC[C@]43C)[C@@H]12`, the GI50 is 3.16 µM with OVCAR-8 ovarian; 1.62 µM with HCT-116 colon; 1.86 µM with U251 CNS; 1.82 µM in the assay on NCI-H460 lung; 1.91 µM with SK-MEL-28 melanoma; 1.44 µM in the assay on UACC-62 melanoma. The TGI with OVCAR-8 ovarian was found to be 33.1 µM; in the assay on HCT-116 colon, 3.82 µM; in the assay on U251 CNS it was 5.68 µM; with NCI-H460 lung it was 3.92 µM; in the assay with SK-MEL-28 melanoma, 3.72 µM; in the assay with UACC-62 melanoma, 3.13 µM.

Take `CS(=O)(=O)c1ccc(Oc2cc(F)cc(C#N)c2)c2c1[C@H](O)C(F)(F)C2`: the GI50 is over 100 µM with OVCAR-8 ovarian; over 100 µM in the assay on HCT-116 colon; over 100 µM in the assay on U251 CNS; over 100 µM in the assay on NCI-H460 lung; 21.9 µM in the assay on CCRF-CEM leukemia; over 100 µM in the assay with SK-MEL-28 melanoma. Besides, the GI50 in the assay with LOX IMVI melanoma is over 100 µM. The TGI was over 100 µM with OVCAR-8 ovarian; over 100 µM in the assay on HCT-116 colon; over 100 µM with U251 CNS; over 100 µM in the assay with NCI-H460 lung; 47.5 µM in the assay with CCRF-CEM leukemia; over 100 µM with SK-MEL-28 melanoma. In the assay with LOX IMVI melanoma, this compound gave a TGI of over 100 µM.

Consider `COc1ccc(-c2nc(N3CCOCC3)c3sc(CN(C)c4ncc(C(=O)NO)cn4)cc3n2)cn1`, for which the GI50 is under 0.01 µM with OVCAR-8 ovarian, under 0.01 µM in the assay with NCI-H460 lung, under 0.01 µM in the assay with CCRF-CEM leukemia and 0.0129 µM in the assay with SK-MEL-28 melanoma. Moreover, the TGI came to 0.222 µM with OVCAR-8 ovarian, 10.9 µM in the assay on NCI-H460 lung, 1.53 µM with CCRF-CEM leukemia and 0.136 µM in the assay with SK-MEL-28 melanoma.

For `Oc1ccc(-c2cn3cc(Cl)sc3n2)cc1`, the GI50 was 56.3 µM in the assay with OVCAR-8 ovarian; over 100 µM with U251 CNS; 12.9 µM in the assay with NCI-H460 lung; 12.1 µM in the assay with CCRF-CEM leukemia; 5.36 µM with UACC-62 melanoma; 32.3 µM with LOX IMVI melanoma. In addition, the TGI was over 100 µM in the assay on OVCAR-8 ovarian; over 100 µM in the assay with U251 CNS; 53.5 µM in the assay with NCI-H460 lung; 39.8 µM in the assay on CCRF-CEM leukemia; 41.6 µM in the assay on UACC-62 melanoma; 86.2 µM in the assay on LOX IMVI melanoma.

As to `Cc1ccc(-c2nc(N)c(C#N)c3c2CCOc2c-3ccc3ccccc23)cc1`, the GI50 in the assay with OVCAR-8 ovarian was 2.28 µM; in the assay with HCT-116 colon, 0.21 µM; with U251 CNS it was 0.222 µM; in the assay on NCI-H460 lung it was 0.332 µM; in the assay on CCRF-CEM leukemia, 0.224 µM; in the assay with SK-MEL-28 melanoma, 2.48 µM. For the same compound, the GI50 with UACC-62 melanoma was 0.935 µM. Also, the TGI with OVCAR-8 ovarian is 27.8 µM; in the assay with U251 CNS it was 4.25 µM; in the assay on NCI-H460 lung, over 46.4 µM; with CCRF-CEM leukemia it was 1.36 µM; in the assay on SK-MEL-28 melanoma, over 100 µM; with UACC-62 melanoma it was over 100 µM.

Take `N#C/C(=C1C=C/C(=N\O)C(Cl)=C\1)c1ccccc1`: the GI50 with OVCAR-8 ovarian was 2.71 µM; with HCT-116 colon it was 0.382 µM; in the assay with NCI-H460 lung it was 2.82 µM; in the assay with CCRF-CEM leukemia it was 0.37 µM; in the assay on SK-MEL-28 melanoma, 6.77 µM; with UACC-62 melanoma it was 2.8 µM. In addition, the TGI was determined as 9.23 µM with OVCAR-8 ovarian; 11.4 µM in the assay on HCT-116 colon; 11.9 µM with NCI-H460 lung; 2.37 µM with CCRF-CEM leukemia; 21.8 µM with SK-MEL-28 melanoma; 18.1 µM in the assay with UACC-62 melanoma.

Consider `CCCC(=O)Nc1ccc2c(c1)CN1C(=O)c3ccccc3C1=N2`, for which the TGI in the assay with OVCAR-8 ovarian, in the assay on HCT-116 colon, in the assay on U251 CNS, in the assay with NCI-H460 lung, with SK-MEL-28 melanoma and in the assay on UACC-62 melanoma was over 100 µM each time. Further, the TGI with LOX IMVI melanoma is over 100 µM.
